Drawing on patent US20260070922A1, “PYRAZOLE AND IMIDAZOLE DERIVATIVES AS DUAL OREXIN AND KAPPA-OPIOID RECEPTORS MODULATORS COMPOSITION, METHODS FOR TREATING NEUROLOGICAL AND PSYCHIATRIC DISORDERS” (HAGER BIOSCIENCES, LLC, priority 2022, published 2026), this text covers inhibition, IC50 and Kb for 22 compounds.

Test [1] concerns the target T1, human orexin-2 receptor (OX2R) (Homo sapiens, UniProt O43614).
T1 construct: expressed in transfected cells; host or cells: CHO cells (G418 selection)
T1 sequence (O43614 1-444): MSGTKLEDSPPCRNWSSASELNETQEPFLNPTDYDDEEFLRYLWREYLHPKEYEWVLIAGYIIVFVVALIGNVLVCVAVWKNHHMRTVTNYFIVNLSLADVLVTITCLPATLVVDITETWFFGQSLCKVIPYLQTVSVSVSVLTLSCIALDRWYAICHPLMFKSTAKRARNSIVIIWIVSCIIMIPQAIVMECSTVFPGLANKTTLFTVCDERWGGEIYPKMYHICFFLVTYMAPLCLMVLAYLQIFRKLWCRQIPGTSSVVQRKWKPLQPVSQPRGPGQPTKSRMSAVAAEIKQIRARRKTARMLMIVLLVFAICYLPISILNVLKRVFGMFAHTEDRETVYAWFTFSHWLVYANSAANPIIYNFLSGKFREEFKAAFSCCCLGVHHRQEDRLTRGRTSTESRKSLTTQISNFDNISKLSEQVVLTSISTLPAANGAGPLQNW
Description: In vitro orexin antagonism assay: intracellular calcium measurement (FLIPR), orexin-A 3 nM as agonist. It is filed as cell-based. The conditions noted are these: for inhibition at 1 µM: read-out: OX2R, % Inh. @ 1 uM; for IC50: first value of IC50/Kb cell; for Kb: second value of IC50/Kb cell. The method in brief: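 Fluorescence peak on 3 nM orexin-A challenge, read by FLIPR and compared with vehicle, yields IC50 (geometric mean when repeated; may be normalized to an on-plate reference). Antagonists were added 120 min beforehand to fluo-4-loaded recombinant CHO cells expressing human OX1R or OX2R.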

The target in test [2] is T2, human k-opioid receptor (kOR) (Homo sapiens, UniProt P41145).
T2 construct: expressed in transfected cells; host or cells: RBL cells (membrane homogenates)
Description: Human k-opioid (KOP) receptor (agonist radioligand [3H]U-69593) binding assay, transfected RBL cell membranes. The conditions noted are these: read-out: KOR % Inh. @ 1 uM. The method in brief: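 Membranes from transfected RBL cells (~80 μg protein) incubated 60 min at 22° C with 0.5 nM [3H]U-69593 in 50 mM Tris-HCl pH 7.4, 10 mM MgCl2, 1 mM EDTA. Nonspecific binding defined with 10 μM naloxone; filtration and scintillation counting. Values are percent inhibition of specific radioligand binding.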

The target of test [3] is T3, Orexin type 1 (OX1R) receptor (Homo sapiens, UniProt O43613).
T3 construct: expressed in transfected cells; host or cells: CHO cells (G418 selection)
T3 sequence (O43613 1-425): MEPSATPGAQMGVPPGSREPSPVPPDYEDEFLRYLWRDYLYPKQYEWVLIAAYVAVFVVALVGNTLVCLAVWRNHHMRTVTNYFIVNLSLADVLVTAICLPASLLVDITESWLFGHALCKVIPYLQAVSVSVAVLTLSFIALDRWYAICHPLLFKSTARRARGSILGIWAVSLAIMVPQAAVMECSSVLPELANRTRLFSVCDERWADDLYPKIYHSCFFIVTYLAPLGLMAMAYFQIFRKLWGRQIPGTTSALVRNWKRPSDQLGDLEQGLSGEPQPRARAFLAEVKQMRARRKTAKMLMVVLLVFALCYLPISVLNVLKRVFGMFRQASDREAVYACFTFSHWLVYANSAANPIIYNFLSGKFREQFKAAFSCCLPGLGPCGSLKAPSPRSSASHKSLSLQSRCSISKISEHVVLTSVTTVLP
Description: In vitro orexin antagonism assay: intracellular calcium measurement (FLIPR), orexin-A 3 nM as agonist. It is filed as cell-based. The settings on record: for IC50: first value of IC50/Kb cell; for inhibition at 1 µM: read-out: OX1R, % Inh. @ 1 uM; for Kb: second value of IC50/Kb cell. An outline of the steps: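 CHO cells expressing the human orexin receptor were loaded with 3 μM fluo-4 AM plus 5 mM probenecid, then exposed to antagonist for 120 min before 3 nM orexin-A (final) was added on a FLIPR.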

Structures are written as SMILES.

T2 sequence (P41145 whole entry): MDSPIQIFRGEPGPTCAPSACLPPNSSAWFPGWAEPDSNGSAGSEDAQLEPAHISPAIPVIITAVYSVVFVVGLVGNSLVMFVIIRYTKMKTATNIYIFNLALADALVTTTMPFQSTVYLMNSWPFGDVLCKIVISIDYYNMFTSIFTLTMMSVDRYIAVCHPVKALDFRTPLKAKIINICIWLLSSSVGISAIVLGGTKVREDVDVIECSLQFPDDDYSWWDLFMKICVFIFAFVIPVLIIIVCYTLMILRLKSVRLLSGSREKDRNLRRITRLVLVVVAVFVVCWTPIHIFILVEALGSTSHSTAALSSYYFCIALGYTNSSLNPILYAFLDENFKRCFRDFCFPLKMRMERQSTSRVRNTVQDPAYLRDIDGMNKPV

Turning to `C[C@@]1(COc2ccc(C(F)(F)F)cn2)CCCN1C(=O)c1nc2ccccn2c1-c1ccccc1` [Example 144], the inhibition at 1 µM in test [1] was 13%. In addition, in test [2], the inhibition at 1 µM worked out at 4%. In addition, in test [3], the IC50 came out at 0.25 µM, the inhibition at 1 µM was found to be 98% and the Kb is 0.053 µM.
Turning to `C[C@@]1(COc2ccc(C(F)(F)F)cn2)CCCN1C(=O)c1nn2c(c1-c1ccccc1)COCC2` [Example 145], in test [1], the inhibition at 1 µM is 5%. Besides, the inhibition at 1 µM in test [2] stood at 12%. In test [3], the half-maximal inhibitory concentration (IC50) was 0.27 µM, the inhibition at 1 µM worked out at 96% and the antagonist dissociation constant (Kb) was 0.056 µM.
Take `C[C@@]1(COc2ccc(C(F)(F)F)cn2)CCCN1C(=O)c1nn2cccnc2c1-c1ccccc1` [Example 146]: in test [1], the inhibition at 1 µM amounted to 27%. Further, the inhibition at 1 µM in test [2] was determined as 0%. In test [3], the half-inhibitory concentration (IC50) worked out at 0.35 µM, the inhibition at 1 µM turned out to be 99% and the Kb worked out at 0.074 µM.
Turning to `C[C@@]1(COc2ccc(C(F)(F)F)cn2)CCCN1C(=O)c1c(-c2ccccn2)nn2ccccc12` [Example 147], the inhibition at 1 µM in test [1] turned out to be 25%. The inhibition at 1 µM in test [2] came to 2%. In test [3], the half-inhibitory concentration (IC50) was determined as 0.043 µM, the inhibition at 1 µM was determined as 100% and the antagonist equilibrium constant (Kb) was found to be 0.009 µM.
`C[C@@]1(COc2ccc(C(F)(F)F)cn2)CCCN1C(=O)c1c(-c2ncccn2)nn2ccccc12` [Example 148]: the figures for the inhibition at 1 µM in test [1], in test [2] and in test [3] were 19%, 8% and 98%, respectively. Besides, the IC50 in test [3] turned out to be 0.12 µM. Further, in test [3], the Kb came to 0.026 µM.
Regarding `C[C@@]1(Cn2ccc(-c3ccccn3)n2)CCCN1C(=O)c1nc2ccccn2c1-c1ccccc1` [Example 149], the inhibition at 1 µM in test [1] turned out to be 13%; in test [2], 28%; in test [3], 89%. In addition, in test [3], the concentration for half-maximal inhibition (IC50) is 0.57 µM. Also, in test [3], the Kb was 0.12 µM.
Turning to `C[C@@]1(Cn2ccc(-c3ccccn3)n2)CCCN1C(=O)c1nn2ccccc2c1-c1ccccc1` [Example 150], in test [1], the inhibition at 1 µM stood at 11%. Moreover, the inhibition at 1 µM in test [2] amounted to 16%. Also, in test [3], the 50% inhibitory concentration (IC50) was found to be 0.34 µM, the inhibition at 1 µM stood at 97% and the Kb turned out to be 0.072 µM.
On the same counts, the results for `C[C@@]1(COc2ccc(C(F)(F)F)cn2)CCCN1C(=O)c1c(-c2ccccc2)nn2ccccc12` [Example 151] are 34%, 7%, 0.09 µM, 99% and 0.019 µM.
Consider `O=C(c1nn2c(c1-c1ccccc1)COCC2)N1[C@@H]2CC[C@@H](C2)[C@H]1COc1ccc(C(F)(F)F)cn1` [Example 152], for which the inhibition at 1 µM in test [1] amounted to 16%; in test [2], 3%; in test [3], 58%. For the same compound, the concentration for half-maximal inhibition (IC50) in test [3] came to 2.4 µM. The Kb in test [3] was found to be 0.51 µM.
Consider `O=C(c1c(-c2ncccn2)nn2ccccc12)N1[C@@H]2CC[C@@H](C2)[C@H]1COc1ccc(C(F)(F)F)cn1` [Example 153], for which the inhibition at 1 µM in test [1] turned out to be 35%; in test [2], 0%; in test [3] it was 90%. Besides, the 50% inhibitory concentration (IC50) in test [3] came to 0.19 µM. In addition, in test [3], the antagonist dissociation constant (Kb) was determined as 0.04 µM.
For the compound `C[C@@]1(Cn2ccc(-c3ccccn3)n2)CCCN1C(=O)c1nn2c(c1-c1ccccc1)COCC2` [Example 154], the inhibition at 1 µM in test [1] was 5%; in test [2], 23%; in test [3] it was 83%. Moreover, in test [3], the IC50 was 0.52 µM. Moreover, the antagonist equilibrium constant (Kb) in test [3] amounted to 0.11 µM.
On the same counts, the results for `O=C(c1c(-c2ncccn2)nn2ccccc12)N1CCC[C@H]1Cc1nc(-c2ccccn2)no1` [Example 155] are 25%, 12%, 69%, 0.41 µM and 0.087 µM.
With `O=C(c1c(-c2ccccn2)nn2ccccc12)N1CCC[C@H]1Cc1nc(-c2ccccn2)no1` [Example 156], in test [1], the inhibition at 1 µM was 50%. Besides, the inhibition at 1 µM in test [2] came to 6%. Besides, in test [3], the IC50 turned out to be 0.023 µM, the inhibition at 1 µM was 97% and the Kb is 0.005 µM.
Consider `C[C@@]1(COc2ccc(C(F)(F)F)cn2)CCCN1C(=O)c1nn2c(c1-c1ccccc1)OCCC2` [Example 157], for which the inhibition at 1 µM in test [1] is 16%. The inhibition at 1 µM in test [2] turned out to be 7%. In addition, in test [3], the IC50 came to 0.19 µM, the inhibition at 1 µM came out at 100% and the Kb was 0.039 µM.
Consider `C[C@@]1(COc2ccc(C(F)(F)F)cn2)CCCN1C(=O)c1c(-c2ccccc2)nn2cccnc12` [Example 158], for which the inhibition at 1 µM in test [1] is 46%. Besides, the inhibition at 1 µM in test [2] was found to be 2%. Moreover, in test [3], the IC50 is 0.12 µM, the inhibition at 1 µM worked out at 93% and the antagonist equilibrium constant (Kb) was found to be 0.026 µM.
As for `[2H]C1([2H])CC[C@@]([2H])(COc2ccc(C(F)(F)F)cn2)N1C(=O)c1nn2c(c1-c1ccccc1)COCC2` [Example 171], the inhibition at 1 µM in test [1] amounted to 26%. Further, the inhibition at 1 µM in test [2] amounted to 0%. In addition, in test [3], the IC50 amounted to 0.01 µM, the inhibition at 1 µM worked out at 100% and the Kb stood at 0.002 µM.
Take `O=C(c1nn2ccccc2c1-c1ccccn1)N1CCC[C@H]1COc1ccc(C(F)(F)F)cn1` [Example 172]: the inhibition at 1 µM in test [1] came to 40%; in test [2] it was 4%; in test [3] it was 100%.
Consider `O=C(c1nn2ccccc2c1-c1ccccn1)N1CCC[C@H]1Cn1cc(-c2ccccn2)cn1` [Example 173], for which, in test [1], the IC50 turned out to be 0.26 µM, the inhibition at 1 µM was 82% and the antagonist equilibrium constant (Kb) worked out at 0.045 µM. In test [2], the inhibition at 1 µM was found to be 3%. Moreover, in test [3], the IC50 was 0.008 µM, the inhibition at 1 µM was found to be 100% and the Kb is 0.002 µM.
As for `O=C(c1nn2ccccc2c1-c1ccccn1)N1CCC[C@H]1Cn1ccc(-c2ccccn2)n1` [Example 174], the inhibition at 1 µM was determined as 56% in test [1], 0% in test [2] and 100% in test [3]. Besides, in test [3], the IC50 amounted to 0.005 µM. Moreover, the Kb in test [3] came to 0.0009 µM.
With `[2H]C1([2H])CC[C@@]([2H])(Cn2ccc(-c3ccc(F)cc3)n2)N1C(=O)c1c(-c2ncccn2)nn2ccccc12` [Example 178], in test [1], the IC50 was determined as 0.015 µM, the inhibition at 1 µM was found to be 95% and the antagonist dissociation constant (Kb) came out at 0.003 µM. The inhibition at 1 µM in test [2] is 53%. Also, in test [3], the IC50 came out at 0.004 µM, the inhibition at 1 µM turned out to be 92% and the Kb turned out to be 0.0008 µM.
As to `O=C(c1nc2ccccn2c1-c1ccccn1)N1CCC[C@H]1Cn1cc(-c2ccccn2)cn1` [Example 181], the inhibition at 1 µM in test [1] worked out at 39%. Further, in test [2], the inhibition at 1 µM is 0%. Besides, in test [3], the half-maximal inhibitory concentration (IC50) amounted to 0.04 µM, the inhibition at 1 µM worked out at 91% and the antagonist dissociation constant (Kb) stood at 0.009 µM.
Take `O=C(c1nn2ccccc2c1-c1ccccn1)N1CCC[C@H]1Cn1cc(-c2ccc(F)cn2)cn1` [Example 183]: in test [1], the inhibition at 1 µM came out at 67%. Further, the inhibition at 1 µM in test [2] is 0%. In addition, in test [3], the IC50 came to 0.038 µM, the inhibition at 1 µM turned out to be 94% and the antagonist dissociation constant (Kb) is 0.009 µM.
